Source: US20160296529A1, “AMINOTRIAZOLOPYRIDINE FOR USE IN THE TREATMENT OF INFLAMMATION, AND PHARMACEUTICAL COMPOSITIONS THEREOF” (priority 2012, published 2016)
Where “and” joins values, the source holds several entries; their conditions need not be identical. Equal values may be shown once. Read-outs that look alike come from different tables or passages of the source.

How the values were obtained:
[1] = biological target: T1, Recombinant human JAK1 catalytic domain (Homo sapiens, UniProt P23458); assay: JAK1 Ulight-JAK1 peptide assay; format: biochemical
T1 construct: amino acids 866-1154; catalog number PV4774; purchased Invitrogen PV4774
Protocol: Recombinant human JAK1 (catalytic domain, amino acids 866-1154; catalog number PV4774) was purchased from Invitrogen. 1 ng of JAK1 was incubated with 20 nM Ulight-JAK1(tyr1023) peptide (Perkin Elmer catalog number TRF0121) in kinase reaction buffer (15 mM MOPS pH6.8, 0.01% Brij-35, 5 mM MgCl2, 2 mM DTT, 7 μM ATP) with or without 4 μL containing test compound or vehicle (DMSO, 1% final concentration), in a total volume of 20 μL, in a white 384 Opti plate (Perkin Elmer, catalog number 6007290). […] Readout was performed using the Envision with excitation at 320 nm and measuring emission at 615 nm (Perkin Elmer). Kinase activity was calculated by subtracting relative fluorescence units (RFU) obtained in the presence of a positive control inhibitor (10 μM staurosporine) from RFU obtained in the presence of vehicle. The ability of a test compound to inhibit this activity was determined as:
Percentage inhibition=((RFU determined for sample with test compound present−RFU determined for sample with positive control inhibitor) divided by (RFU determined in the presence of vehicle−RFU determined for sample with positive control inhibitor))*100.
A dose dilution series was prepared for the compound enabling the testing of dose-response effects in the JAK1 assay and the calculation of the IC50 for the compound. […] The data were expressed as the average IC50 from the assays±standard error of the mean.

[2] = test system: IFNα-induced STAT1 phosphorylation (JAK1/TYK2 pathway); assay: Human whole blood assay (hWBA), IFNα stimulation, phospho-STAT1 on CD4+ cells; format: cell-based; conditions: 6 different donors
Protocol: A flow cytometry analysis was performed to establish JAK1 over JAK2 compound selectivity ex vivo using human whole blood. Therefore, blood is taken from human volunteers who gave informed consent. Blood is then equilibrated for 30 min at 37° C. under gentle rocking, then aliquoted in Eppendorf tubes. Compound is added at different concentrations and incubated at 37° C. for 30 min under gentle rocking and subsequently stimulated for 20 min at 37° C. under gentle rocking with interleukin 6 (IL-6) for JAK1-dependent pathway stimulation, Interferon alpha (IFNα) for JAK1/TYK2 pathway stimulation, interleukin 2 (IL-2) for JAK1/JAK3 pathway stimulation or GM-CSF for JAK2-dependent pathway stimulation. Phospho-STAT1 (for IL-6- and IFNα-stimulated cells) and phospho-STAT5 (for IL-2- and GM-CSF-stimulated cells) levels are then evaluated using FACS analysis. […]
Cells were then washed once with 1×PBS and analyzed on a FACSCanto II flow cytometer (BD Biosciences).
50,000 total events were counted and Phospho-STAT1 positive cells were measured after gating on CD4+ cells, in the lymphocyte gate for IL-6- and IFNα-stimulated cells. Phospho-STAT5 positive cells were measured after gating on CD4+ cells, in the lymphocyte gate for IL-2-stimulated cells. Phospho-STAT5 positive cells were measured after gating on CD33+ cells. […]

T1 sequence (P23458 866-1154): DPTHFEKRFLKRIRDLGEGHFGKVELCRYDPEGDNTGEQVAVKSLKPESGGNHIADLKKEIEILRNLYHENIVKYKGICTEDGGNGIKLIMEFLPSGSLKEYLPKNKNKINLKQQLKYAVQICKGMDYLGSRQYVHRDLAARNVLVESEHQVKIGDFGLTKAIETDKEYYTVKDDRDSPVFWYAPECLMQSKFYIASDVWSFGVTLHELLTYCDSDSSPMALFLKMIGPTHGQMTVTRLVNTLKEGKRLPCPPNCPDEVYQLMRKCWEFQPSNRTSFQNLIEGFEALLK

IC50 ([1]; average, read-out: IC50 (average)): 307 nM
IC50 ([1]; individual determinations, read-out: IC50): 347 nM and 355 nM and 222 nM and 714 nM and 167 nM and 103 nM and 187 nM and 582 nM and 295 nM and 242 nM and 159 nM
IC50 [2]: 15400 nM
SMILES: Nc1nc2cccc(-c3ccc(CN4CCS(=O)(=O)CC4)cc3)n2n1 [Formula I, 5-[4-(1,1-Dioxothiomorpholin-4-ylmethyl)-phenyl]-[1,2,4]triazolo[1,5-a]pyridin-2-ylamine]
